Results published in US20230089267A1, “Compositions and Methods For Reducing Immune Intolerance and Treating Autoimmune Disorders” (Lapix Therapeutics, Inc., priority 2021, published 2023).
Counter-ions that a name gives are not always drawn.

Legend:
passive MG model = assay: Passive myasthenia gravis model, adoptive transfer to RAG2−/− mice; type: in vivo; conditions: by day 10, SC daily for ten days
Method: In this passive MG model in B6 mice, donor mice (n=20, aged 6-8 weeks) were immunized with complete Freund's adjuvant (CFA) and nicotinic acetylcholine receptor (AChR) emulsion weekly for four weeks. Seven days after the last immunization, splenocytes were collected, and 10^6 cells/mouse were transferred to RAG2^−/− mice. The recipient mice (n=10/group) were treated one day after adoptive transfer with prednisone (1 μg/mouse) SC daily for ten days after disease onset or Compound 2 3 μg SC daily for ten days after disease onset, or were left untreated. Minimal manifestation of disease was defined as a return to a clinical score of 1 after an exacerbation (score 2 or higher). Time to return to minimal score was logged, and the likelihood of return was plotted for untreated animals, and standard of care (SOC; prednisone)- and Compound 2-treated animals.

[1] = tested on: FoxP3+/CD4+ T-cells in splenocytes from naïve C57BL/6 mice; assay: In vitro dose-response, percent FoxP3+/CD4+ T-cells in murine splenocytes; type: cell-based; conditions: for EC50 / EC90: Mus musculus, T-cell, percent FoxP3+/CD4+ T-cells, 72 hours, 4-parameter log-logistic model fit; for mean FoxP3+/CD4+ T-cells, upper plateau, mean (SEM): high dose; for mean FoxP3+/CD4+ T-cells, upper plateau, mean (SEM) / mean FoxP3+/CD4+ T-cells, lower plateau, mean (SEM): from model fitting; for mean FoxP3+/CD4+ T-cells, lower plateau, mean (SEM): low dose
Method: All animal studies were conducted under IACUC number B2020-91 and in compliance with Tufts University/Tufts Medical Center & Human Nutrition Research Center on Aging. Animals were housed four in a cage and had access to food and water ad libitum. Anti-FoxP3 and anti-CD4 for flow cytometry were obtained from eBioscience. Compounds 1-3 were formulated with 10% DMPC in PBS. PS liposomes were synthesized at a 30:70 PS:lipid molar ratio.
Splenocytes from naïve C57BL/6 mice were stained with CFSE, seeded at 2×10^5 cells/well, and dosed with each compound from 1e^−4 μM to 3.0e^−9 μM using a log 2 dilution scheme. Cells were incubated for 72 hours before phenotyping for FoxP3+/CD4+ T-cells. Flow cytometer analysis was performed to assess changes in percent FoxP3+/CD4+ T-cells as a function of compound and dose. Concentration versus response was fitted to a 4-parameter, log-logistic model using the “dre” package in “R”. Both EC50 and EC90 were obtained by model fitting.
Cells were observed via a microscope at the end of the incubation period. All cells looked healthy and suitable for flow cytometry analysis.
Table 2 summarizes EC50 and EC90 values obtained from the model fitting.

[2] = tested on: MOG35-55-induced murine EAE model; assay: MOG35-55-induced murine EAE model, Compound 2 versus Compound 8 (Example 12); type: in vivo, mice; conditions: 3 μg/mouse/day SC, after ten days of treatment
Method: Mice were immunized with 100 μg MOG35-55 emulsified with CFA and pertussis toxin, as described in Example 4. At disease onset (clinical score 1), mice were randomized into two treatment groups, and received 3 μg/mouse/day SC of either Compound 2 or Compound 8.

[3] = tested on: MOG35-55-induced murine EAE model; assay: Escalation treatment paradigm in MOG35-55-induced murine EAE model (Example 8); type: in vivo, mice
Method: Compound 2 (0.03 mg/ml) was formulated with hydroxypropyl beta cyclodextrin (HPCD) 1:80 (Compound 2:HPCD) and stored at 4° C. until use. Natalizumab, an anti-α4β1 integrin antibody is a monoclonal antibody that is approved by U.S. Food and Drug Administration (FDA) for the treatment of relapsing forms of MS. […] Natalizumab was diluted in PBS to a final concentration of 15 mg/ml before dosing. DMF is a disease-modifying therapy (DMT) recommended for the treatment of active relapsing multiple sclerosis. DMF (1 g) was dissolved in 50 ml of 4% solution of METHOCEL© to give a 20 mg/ml solution of DMF. The solution was stored at 4° C. until use.
Experimental autoimmune (allergic) encephalomyelitis (EAE) is considered to be the best non-clinical model of multiple sclerosis (MS). Over 6,000 papers have been published in scientific journals on this model. EAE is characterized by immune responses against CNS tissue and can be induced in animals by immunizing them against proteins of the CNS. In the active EAE model, mice are immunized with MOG35-55 peptide emulsified in Complete Freund's Adjuvant (CFA) by subcutaneous injection at the tail base (100 μg of […] per mouse) under anesthesia. On the day of injection (Day 0) and two days later (Day 2), mice receive an intraperitoneal injection of pertussis toxin (PT) in PBS at 200 ng/mouse/dose (0.1 mL). Symptoms typically develop in mice 9-14 days after immunization (Day 0). Daily observation and scoring of mice start on Day 7 and continue until the end of the study. Table 5 (see Example 4 above) details the expected clinical symptoms and the scoring criteria used in this study.
This study was designed to evaluate the early sustained use of Compound 2 versus DMF in a treatment escalation paradigm (sustained use cohort), and Compound 2 versus natalizumab after DMF failure (escalation cohort). All animals in the escalation cohorts received 14 doses of DMF or Compound 2, or 3 doses of natalizumab, as per group assignment.
Probability of disease control: Disease control was defined as a clinical score of less than 2.5. Animals in the different treatment groups were monitored after the 3:1:1 randomization. A score of 2.5 was recorded as an event and analyzed by survival analysis in GraphPad Prism 9. Animals not reaching a clinical score of 2.5 by day 14, the end of the treatment period, were assigned a score of zero for the survival analysis.
Efficacy of Compound 2 versus DMF in early sustained use: Animals in the DMF group that reached a score of 2.5 were randomized 1:1:1, as per FIG. 5A. Animals randomized to continue DMF treatment were given the remainder of the 14 DMF doses. Animals from the first randomization that were treated with Compound 2 after disease onset continued treatment for a total of 14 doses. After the 14th dose, treatment was stopped and clinical score and overall survival were monitored.
Efficacy of Compound 2 versus natalizumab in a treatment escalation cohort: Animals in the DMF group that reached a score of 2.5 were randomized 1:1:1, as per FIG. 5A. Animals randomized to natalizumab were dosed 100 μg/mouse IV every 3 days for 3 total doses starting the same day a score of 2.5 was recorded. Animals randomized to Compound 2 were dosed with 3 μg/mouse SC QD for 14 total doses starting on the same day a score of 2.5 was recorded.
Overall survival: Death due to the disease was monitored in the early sustained use cohort as well as the escalation cohort. Death by disease (clinical score of 5) was recorded as an event “1,” death due to ulceration or for ex vivo analysis was recorded as “0.” Animals surviving until the end of the study were recorded “0” on day 27. Survival analysis was done in GraphPad Prism 9.

[4] = tested on: MOG35-55-induced murine EAE model; assay: Induction/maintenance treatment paradigm in MOG35-55-induced murine EAE model (Example 9); type: in vivo, mice
Method: Compound 2, natalizumab and DMF were prepared as described in Example 8. Table 5 (see Example 4) details the expected clinical symptoms and scoring criteria used in this study.
This study was designed to evaluate the therapeutic effects of Compound 2 versus natalizumab in a treatment induction/maintenance paradigm (induction cohort), and Compound 2 versus DMF after natalizumab (maintenance cohort). In the induction cohorts, animals were randomized 2:1:1 natalizumab:Compound 2:control when they reached a score of 2.5, as per FIG. 6A. Animals in the natalizumab cohort were given 100 μg natalizumab/mouse every 3 days for 3 doses before being randomized to the maintenance cohort. Animals randomized into the maintenance cohort after natalizumab received maintenance doses of DMF or Compound 2 (1:1 randomization), as per their group assignment for 14 days. Animals in the Compound 2 induction cohort were dosed with 30 μg Compound 2/mouse SC QD for a maximum of 7 days, or 3 consecutive days of disease score <2.5, at which time they were placed on a maintenance dose of 3 μg/mouse SC QD for 14 days. All animals in all groups were monitored for 14 days after the last dose for disease score and survival.
Disease control (induction therapy): Disease control was defined as maintaining a clinical score of 2.5 or less after randomization. Animals in the different treatment groups were monitored after the 2:1:1 randomization. Clinical scores were recorded daily for all animals and plotted over time. A score of >2.5 was recorded as an event and analyzed by survival analysis in GraphPad Prism 9. Animals not reaching a clinical score of 2.5 by the end of the induction period (day 7) were assigned a score of zero for the survival analysis.
Survival (induction therapy): Death due to disease (clinical score 5) during the treatment induction period was recorded as an event “1”, animals surviving until the end of the induction period, day 7 after randomization, were censored on day 7 for the purposes of survival analysis.
Disease control (maintenance therapy): At the end of the induction period with natalizumab, animals were randomized 1:1 to the DMF maintenance group or Compound 2 maintenance group as per FIG. 6A. Animals were dosed for 14 days, and clinical scores were monitored daily.
Survival (maintenance therapy): Death by disease (clinical score of 5) was recorded as an event “1”, death due to ulceration or ex vivo analysis was recorded as “0”. Animals surviving until the end of the study were recorded as “0” on the last day of the study. Survival analysis was done in GraphPad Prism 9.

[5] = escalation cohort after DMF failure (score 2.5), by day 14 after switching
[6] = maintenance after natalizumab induction

With C[C@]12C=CC(=O)C=C1CC[C@@H]1[C@@H]2C(=O)C[C@@]2(C)[C@H]1CC[C@]2(O)C(=O)CO [prednisone, reference compound] as the molecule, how does the “animals returned to minimal manifestation of disease (score 1)” value (passive MG model) read?
The value was 46%.

How did the EC50 [1] turn out when N[C@@H](CNC(=O)Cc1ccc(OCc2ccccc2)cc1)C(=O)O [Compound 1, (S)-2-amino-3-(2-(4-(benzyloxy)phenyl)acetamido)propanoic acid] was run?
Its EC50 is 2.06 nM.

And the EC90 [1]?
Its EC90 is 688 nM.

And the “mean FoxP3+/CD4+ T-cells, upper plateau, mean (SEM)” value [1]?
The value was 5.18%.

And the “mean FoxP3+/CD4+ T-cells, lower plateau, mean (SEM)” value [1]?
Its value is 1.47%.

N[C@@H](CNC(=O)Cc1ccc(OCc2cccc3ccccc23)cn1)C(=O)O [Compound 8, (S)-2-Amino-3-(2-(5-(naphthalen-1-ylmethoxy)pyridin-2-yl)acetamido)propanoic acid] was tested. Which “mean clinical score, comparison of the two groups” value [2] did it give?
The value was “no statistical difference”.

“natalizumab: anti-α4β1 integrin monoclonal antibody approved by FDA for the treatment of relapsing forms of MS [reference compound]” was tested. Which “mean clinical score after switching from DMF” value [3, 5] did it give?
The value was 3.6 (SD=1.6).

What about the “median clinical score after switching from DMF” value [3, 5] of the same molecule?
The value was 3.75.

What about the “animals that survived until day 27, escalation cohort” value ([3]; switched from DMF) of the same molecule?
Its value is 6 out of 9.

And the “mice showing clinical score improvement and switched to maintenance before end of induction period” value ([4]; induction period)?
The value was 0/18.

What about the “animals that survived the treatment induction period” value ([4]; induction period, day 7 after randomization) of the same molecule?
The value was 11/18.

What about the “mice that died before completing the induction therapy” value ([4]; induction therapy) of the same molecule?
Its value is 38.8%.

And the “mean clinical score by day 7 of induction” value ([4]; randomized at score 2.5, Compound 2 30 μg SC)?
The value was 3.61 (SD=1.17).

What about the “animals that progressed to a clinical score >2.5 during induction” value ([4]; randomized at score 2.5, natalizumab 100 μg/mouse every 3 days, Compound 2 30 μg SC) of the same molecule?
Its value is 12.

For COC(=O)/C=C/C(=O)OC [DMF, dimethyl fumarate, reference compound], which “disease course in early sustained use cohort” value ([3]; 14 doses, followed to end of study) is on record?
Its value is “progressed at the same rate as untreated control animals, with all animals reaching a clinical score of 5 by end of the study”.

And the “overall survival, early sustained use cohort” value ([3]; to day 27)?
Its value is “all animals in the DMF-treated group died by day 26”.

And the “animals that progressed to a score of 2.5” value ([3]; treatment from disease onset (score 1), within 7 days of disease onset)?
The value was “All animals (n=30)”.

What about the “mean clinical score of animals randomized to maintenance therapy after natalizumab induction” value ([4]; at start of maintenance) of the same molecule?
The value was 2.5 (SD=0.4).

What about the “animals that progressed to clinical score 5 (death by disease)” value [4, 6] of the same molecule?
The value was 3 out of 4.

And the “last measured score, day 7 after initiation of maintenance” value [4, 6]?
Its value is 4.37 (SD=1.2).

What about the “mortality rate in maintenance cohort” value ([4]; maintenance after natalizumab induction, n=4 in each group) of the same molecule?
Its value is 75%.

Which results are given for CCCCCC(=O)O[C@@H](COC(C)=O)CO[PH](=O)OC[C@H](N)C(=O)O (stereo partly shown) [PS, phosphatidylserine, reference compound]?
EC50 [1]: 0.133 nM; EC90 [1]: 0.314 nM

Which “potency relative to PS, as measured by EC50 and EC90” value ([1]; EC50 and EC90, respectively) does the source give for N[C@@H](CNC(=O)Cc1ccc(OC(c2ccccc2)c2ccccc2)cc1)C(=O)O [Compound 3, (S)-2-amino-3-(2-(4-(benzhydryloxy)phenyl)acetamido)propanoic acid] here?
Its value is “two and one orders of magnitude higher (more potent) than PS”.

What about the EC50 [1] of the same molecule?
Its EC50 is 3.76 nM.

And the EC90 [1]?
Its EC90 is 20.4 nM.

What about the “mean FoxP3+/CD4+ T-cells, upper plateau, mean (SEM)” value [1] of the same molecule?
Its value is 3.48%.

What about the “mean FoxP3+/CD4+ T-cells, lower plateau, mean (SEM)” value [1] of the same molecule?
The value was 1.32%.
